Assay results published in patent publication US12661353B2, “SPT5 inhibitors and uses thereof” (Yeda Research and Development Co. Ltd., priority 2020, dated 2026).

Key:
[1] = system: HSPA6 and HSPA1A; test: mRNA of heat shock genes HSPA6 and HSPA1A, HeLa, RT-qPCR; type: cell-based, human
Method: RNA analysis—Total RNA was extracted using Tri-reagent (Bio-Lab Chemicals) and Direct-Zol™ RNA MiniPrep kit (Zymo Research). Following, cDNA was synthesized from […] of total RNA using a High-Capacity cDNA Reverse Transcription Kit (ABI, Thermo Fisher Scientific). cDNA samples were analyzed by quantitative PCR (qPCR) in a ViiA 7 Real-Time PCR System using Fast qPCRBIO SYBR Green Mix (PCR Biosystems).
A major limitation of KD and KO studies is the prolonged deficiency of the target protein. Small molecule inhibitors on the other hand, inactivate their target shortly following their application. […] Reads were aligned to the human genome and normalized expression of each gene was determined. Subsequently, the following ratios were calculated: TNFα vs. control, which describes the response to TNFα; SPI-21 vs. control, which describes the effect of SPI-21 on gene expression under basal conditions; and SPI-21+TNFα vs. TNFα, which describes the effect of SPI-21 under TNFα-induced conditions. […] To test this possibility, cells were treated with SPI-21 for 2 and 24 hours and the levels of the heat shock genes HSPA6 and HSPA1A were determined by RT-qPCR. […] To further test the idea of kinetically distinct Spt5 target genes, the global effect of long-term SPI-21 treatment (24 hours) was determined by RNA-seq and the affected genes between the short and long-term treatments were compared. […]

[2] = target: T1, Spt5-Pol II interaction (NGN and KOW 1&2 of Spt5, coiled-coil domain of Rpb1) (Homo sapiens, UniProt P24928); test: Split-Renilla luciferase (RL) complementation assay of Spt5-Pol II interaction; type: binding
T1 construct: the region spanning NGN and KOW 1&2 of Spt5 and the coiled-coil (CC) domain of Rpb1; the coiled-coil (CC) domain of Rpb1, the large subunit of Pol II, were fused to N-RL and C-RL, respectively; made in house; host or cells: E. coli (pRSFDuet double expression plasmid); bacterial cell lysate used unpurified
T1 sequence (P24928 8-370 limits assumed): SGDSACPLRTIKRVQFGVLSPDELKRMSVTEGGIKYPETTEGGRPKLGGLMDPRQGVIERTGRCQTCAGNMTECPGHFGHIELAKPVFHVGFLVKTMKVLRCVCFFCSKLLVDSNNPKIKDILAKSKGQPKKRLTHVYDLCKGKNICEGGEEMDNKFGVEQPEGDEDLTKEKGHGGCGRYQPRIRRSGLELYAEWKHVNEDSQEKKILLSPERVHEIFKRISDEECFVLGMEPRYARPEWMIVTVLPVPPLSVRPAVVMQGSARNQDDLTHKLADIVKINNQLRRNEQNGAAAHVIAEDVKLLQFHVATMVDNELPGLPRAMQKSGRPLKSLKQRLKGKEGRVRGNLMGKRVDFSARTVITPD
Description: Plasmid construction—The mammalian expression plasmids RSV-AC/AN Renilla luciferase (pRL-AC/AN), encoding the N-terminal amino acid residues 1-229 or the C-terminus 230-311 of the Renilla luciferase (RL) were previously described in Ashkenazi et al., 2016; and Ashkenazi et al., 2017. The split-Renilla luciferase fusion plasmids were constructed by two-step PCR using the pRL-AC or pRL-AN as backbones and plasmids encoding the region spanning NGN and KOW 1&2 of human Spt5 (SEQ ID NOs: 1-3) or the coiled-coil (CC) domain of human Rpb1 (SEQ ID NOs: 4-6), respectively, as insert sources. For bacterial expression of the split-RL fusion proteins the double expression plasmid pRSFDuet was used. All constructs were verified by sequencing.
High-throughput drug screening (HTS)—About 100,000 compounds [from MEGxp library: Pure natural compounds from plants (see Table 1 hereinbelow) were screened for their effect on Spt5-Pol II interaction (a schematic representation of the assay is shown in FIG. 1B). […] Compounds that diminished the luminescence activity by >30% were subjected for an additional screen with a bacterial lysate expressing recombinant full-length RL (diluted 1: 500 in phosphate buffer) that served as a control for false-positive compounds that inhibit the RL enzymatic activity itself (Ashkenazi et al., 2017). […]

Row | Compound | levels of heat shock genes HSPA6 and HSPA1A ([1]; 2 hours treatment) | extent of activation of HSPA6 and HSPA1A ([1]; 24 hours treatment) | IC50 [2] [µM]
1 | COc1ccc(C=CC(=O)c2cc(O)ccc2O)cc1 [SPI-21] | strongly up-regulated | substantially smaller | 25
2 | Nc1ccccc1SC(CC(=O)c1cccs1)c1cccs1 (stereo not shown) [SPI-18] | – | – | 33
